“And” between values parts separate entries of the source, which are not always exact repeats. Equal entries are not always repeated. The source made the active and inactive calls. How the calls were made is not given here.
Test system: rodent lifetime carcinogenesis bioassay, tumor incidence TD50
Test: chronic cancer bioassays in animals – CPDB, compiled studies (AID 1745844)

C=CC(=C)C
TD50 (mouse, strain B6C3F1, females, inhaled, site: Harderian gland, lesion: adenoma, dosed 80 weeks, study length 105 weeks): 319 mg/kg/day | TD50 (mouse, strain B6C3F1, females, inhaled, site: pituitary gland, lesion: pars distalis adenoma, dosed 80 weeks, study length 105 weeks): 247 mg/kg/day | TD50 (mouse, strain B6C3F1, females, inhaled, site: spleen, lesion: hemangiosarcoma, dosed 80 weeks, study length 105 weeks): 682 mg/kg/day | TD50 (mouse, strain B6C3F1, males, inhaled, site: Harderian gland, lesion: adenoma + carcinoma, dosed 26 weeks, study length 53 weeks): 96.8 mg/kg/day | TD50 (mouse, strain B6C3F1, males, inhaled, site: Harderian gland, lesion: adenoma, dosed 26 weeks, study length 53 weeks): 96.8 mg/kg/day | TD50 (mouse, strain B6C3F1, males, inhaled, site: Harderian gland, lesion: adenoma, dosed 40 weeks, study length 105 weeks): 739 mg/kg/day | TD50 (mouse, strain B6C3F1, males, inhaled, site: Harderian gland, lesion: adenoma, dosed 80 weeks, study length 96 weeks): 711 mg/kg/day | TD50 (mouse, strain B6C3F1, males, inhaled, site: Harderian gland, lesion: adenoma, dosed 80 weeks, study length 105 weeks): 881 mg/kg/day | TD50 (mouse, strain B6C3F1, males, inhaled, site: Harderian gland, lesion: carcinoma, dosed 26 weeks, study length 53 weeks): 14700 mg/kg/day | TD50 (mouse, strain B6C3F1, males, inhaled, site: Harderian gland, lesion: carcinoma, dosed 80 weeks, study length 96 weeks): 12800 mg/kg/day | TD50 (mouse, strain B6C3F1, males, inhaled, site: Harderian gland, lesion: carcinoma, dosed 80 weeks, study length 105 weeks): 15000 mg/kg/day | TD50 (mouse, strain B6C3F1, males, inhaled, site: any site (literature study), lesion: several types, types named in the paper, dosed 26 weeks, study length 53 weeks): 348 mg/kg/day | TD50 (mouse, strain B6C3F1, males, inhaled, site: forestomach + Harderian gland + liver + lung, lesion: squamous-cell carcinoma + squamous-cell papilloma + adenoma + carcinoma + hepatocellular adenoma + hepatocellular carcinoma + alveol, dosed 26 weeks, study length 53 weeks): 355 mg/kg/day | TD50 (mouse, strain B6C3F1, males, inhaled, site: forestomach, lesion: squamous-cell carcinoma + squamous-cell papilloma, dosed 26 weeks, study length 53 weeks): 1310 mg/kg/day | TD50 (mouse, strain B6C3F1, males, inhaled, site: forestomach, lesion: squamous-cell carcinoma, dosed 26 weeks, study length 53 weeks): 4850 mg/kg/day | TD50 (mouse, strain B6C3F1, males, inhaled, site: forestomach, lesion: squamous-cell carcinoma, dosed 80 weeks, study length 96 weeks): 25800 mg/kg/day | TD50 (mouse, strain B6C3F1, males, inhaled, site: forestomach, lesion: squamous-cell carcinoma, dosed 80 weeks, study length 105 weeks): 22200 mg/kg/day | TD50 (mouse, strain B6C3F1, males, inhaled, site: forestomach, lesion: squamous-cell papilloma, dosed 26 weeks, study length 53 weeks): 1860 mg/kg/day | TD50 (mouse, strain B6C3F1, males, inhaled, site: forestomach, lesion: squamous-cell papilloma, dosed 40 weeks, study length 105 weeks): 15600 mg/kg/day | TD50 (mouse, strain B6C3F1, males, inhaled, site: forestomach, lesion: squamous-cell papilloma, dosed 80 weeks, study length 96 weeks): 25800 mg/kg/day | TD50 (mouse, strain B6C3F1, males, inhaled, site: forestomach, lesion: squamous-cell papilloma, dosed 80 weeks, study length 105 weeks): 45000 mg/kg/day | TD50 (mouse, strain B6C3F1, males, inhaled, site: heart, lesion: hemangiosarcoma, dosed 40 weeks, study length 105 weeks): 32900 mg/kg/day | TD50 (mouse, strain B6C3F1, males, inhaled, site: heart, lesion: hemangiosarcoma, dosed 80 weeks, study length 96 weeks): 25800 mg/kg/day | TD50 (mouse, strain B6C3F1, males, inhaled, site: heart, lesion: hemangiosarcoma, dosed 80 weeks, study length 105 weeks): 39000 mg/kg/day | TD50 (mouse, strain B6C3F1, males, inhaled, site: liver, lesion: hepatocellular adenoma + hepatoblastoma + hepatocellular carcinoma, dosed 26 weeks, study length 53 weeks): 183 mg/kg/day | TD50 (mouse, strain B6C3F1, males, inhaled, site: liver, lesion: hepatocellular adenoma + hepatocellular carcinoma, dosed 26 weeks, study length 53 weeks): 183 mg/kg/day | TD50 (mouse, strain B6C3F1, males, inhaled, site: liver, lesion: hepatocellular adenoma, dosed 26 weeks, study length 53 weeks): 150 mg/kg/day | TD50 (mouse, strain B6C3F1, males, inhaled, site: liver, lesion: hepatocellular adenoma, dosed 40 weeks, study length 105 weeks): 1070 mg/kg/day | TD50 (mouse, strain B6C3F1, males, inhaled, site: liver, lesion: hepatocellular adenoma, dosed 80 weeks, study length 96 weeks): 1760 mg/kg/day | TD50 (mouse, strain B6C3F1, males, inhaled, site: liver, lesion: hepatocellular adenoma, dosed 80 weeks, study length 105 weeks): 1570 mg/kg/day | TD50 (mouse, strain B6C3F1, males, inhaled, site: liver, lesion: hepatocellular carcinoma, dosed 26 weeks, study length 53 weeks): 1270 mg/kg/day | TD50 (mouse, strain B6C3F1, males, inhaled, site: liver, lesion: hepatocellular carcinoma, dosed 40 weeks, study length 105 weeks): 2330 mg/kg/day | TD50 (mouse, strain B6C3F1, males, inhaled, site: liver, lesion: hepatocellular carcinoma, dosed 80 weeks, study length 96 weeks): 3290 mg/kg/day | TD50 (mouse, strain B6C3F1, males, inhaled, site: liver, lesion: hepatocellular carcinoma, dosed 80 weeks, study length 105 weeks): 4850 mg/kg/day | TD50 (mouse, strain B6C3F1, males, inhaled, site: lung, lesion: alveolar/bronchiolar adenoma + alveolar/bronchiolar carcinoma, dosed 26 weeks, study length 53 weeks): 752 mg/kg/day | TD50 (mouse, strain B6C3F1, males, inhaled, site: lung, lesion: alveolar/bronchiolar adenoma, dosed 26 weeks, study length 53 weeks): 836 mg/kg/day | TD50 (mouse, strain B6C3F1, males, inhaled, site: lung, lesion: alveolar/bronchiolar adenoma, dosed 40 weeks, study length 105 weeks): 908 mg/kg/day | TD50 (mouse, strain B6C3F1, males, inhaled, site: lung, lesion: alveolar/bronchiolar adenoma, dosed 80 weeks, study length 96 weeks): 4810 mg/kg/day | TD50 (mouse, strain B6C3F1, males, inhaled, site: lung, lesion: alveolar/bronchiolar adenoma, dosed 80 weeks, study length 105 weeks): 1660 mg/kg/day | TD50 (mouse, strain B6C3F1, males, inhaled, site: lung, lesion: alveolar/bronchiolar carcinoma, dosed 26 weeks, study length 53 weeks): 2790 mg/kg/day | TD50 (mouse, strain B6C3F1, males, inhaled, site: lung, lesion: alveolar/bronchiolar carcinoma, dosed 40 weeks, study length 105 weeks): 9230 mg/kg/day | TD50 (mouse, strain B6C3F1, males, inhaled, site: lung, lesion: alveolar/bronchiolar carcinoma, dosed 80 weeks, study length 96 weeks): 8410 mg/kg/day | TD50 (mouse, strain B6C3F1, males, inhaled, site: lung, lesion: alveolar/bronchiolar carcinoma, dosed 80 weeks, study length 105 weeks): 6680 mg/kg/day | TD50 (mouse, strain B6C3F1, males, inhaled, site: lymphoreticular system, lesion: histiocytic sarcoma, dosed 40 weeks, study length 105 weeks): 4430 mg/kg/day | TD50 (mouse, strain B6C3F1, males, inhaled, site: lymphoreticular system, lesion: histiocytic sarcoma, dosed 80 weeks, study length 96 weeks): 3450 mg/kg/day | TD50 (mouse, strain B6C3F1, males, inhaled, site: lymphoreticular system, lesion: histiocytic sarcoma, dosed 80 weeks, study length 105 weeks): 150000 mg/kg/day | TD50 (mouse, strain B6C3F1, males, inhaled, site: spleen, lesion: hemangiosarcoma, dosed 80 weeks, study length 96 weeks): 25800 mg/kg/day | TD50 (rat, strain Fischer 344, females, inhaled, site: any site (literature study), lesion: several types, types named in the paper, dosed 105 weeks, study length 105 weeks): 6940 mg/kg/day | TD50 (rat, strain Fischer 344, females, inhaled, site: brain, meninges, lesion: granular-cell tumor, benign, dosed 105 weeks, study length 105 weeks): 40600 mg/kg/day | TD50 (rat, strain Fischer 344, females, inhaled, site: brain, meninges, lesion: sarcoma, dosed 105 weeks, study length 105 weeks): 50800 mg/kg/day | carcinogen call (rat, strain Fischer 344, females, inhaled, site: brain, lesion: astrocytoma, benign, dosed 105 weeks, study length 105 weeks): e | TD50 (rat, strain Fischer 344, females, inhaled, site: brain, lesion: malignant glioma, dosed 105 weeks, study length 105 weeks): 30800 mg/kg/day | TD50 (rat, strain Fischer 344, females, inhaled, site: brain, lesion: medulloblastoma, malignant, dosed 105 weeks, study length 105 weeks): 52800 mg/kg/day | TD50 (rat, strain Fischer 344, females, inhaled, site: liver, lesion: hepatocellular adenoma + hepatoblastoma + hepatocellular carcinoma, dosed 105 weeks, study length 105 weeks): 25300 mg/kg/day | TD50 (rat, strain Fischer 344, females, inhaled, site: mammary gland, lesion: fibroadenoma + fibroadenoma, multiple, dosed 105 weeks, study length 105 weeks): 3340 mg/kg/day | TD50 (rat, strain Fischer 344, females, inhaled, site: mammary gland, lesion: fibroadenoma, multiple, dosed 105 weeks, study length 105 weeks): 206 mg/kg/day | TD50 (rat, strain Fischer 344, males, inhaled, site: kidney + mammary gland + testis, lesion: tubule adenoma + carcinoma + fibroadenoma + fibroadenoma, multiple + interstitial-cell adenoma, bilateral + interstitial-cell aden, dosed 104 weeks, study length 104 weeks): 988 mg/kg/day | TD50 (rat, strain Fischer 344, males, inhaled, site: kidney, lesion: tubule adenoma + tubule carcinoma, dosed 104 weeks, study length 104 weeks): 3150 mg/kg/day and 2290 mg/kg/day | TD50 (rat, strain Fischer 344, males, inhaled, site: kidney, lesion: tubule adenoma, dosed 104 weeks, study length 104 weeks): 3150 mg/kg/day and 2290 mg/kg/day | TD50 (rat, strain Fischer 344, males, inhaled, site: mammary gland, lesion: carcinoma + fibroadenoma, dosed 104 weeks, study length 104 weeks): 670 mg/kg/day | TD50 (rat, strain Fischer 344, males, inhaled, site: mammary gland, lesion: carcinoma, dosed 104 weeks, study length 104 weeks): 7880 mg/kg/day | TD50 (rat, strain Fischer 344, males, inhaled, site: mammary gland, lesion: fibroadenoma + fibroadenoma, multiple, dosed 104 weeks, study length 104 weeks): 655 mg/kg/day | TD50 (rat, strain Fischer 344, males, inhaled, site: mammary gland, lesion: fibroadenoma, multiple, dosed 104 weeks, study length 104 weeks): 2220 mg/kg/day | TD50 (rat, strain Fischer 344, males, inhaled, site: mammary gland, lesion: fibroadenoma, dosed 104 weeks, study length 104 weeks): 655 mg/kg/day | TD50 (rat, strain Fischer 344, males, inhaled, site: testis, lesion: interstitial-cell adenoma, bilateral + interstitial-cell adenoma, dosed 104 weeks, study length 104 weeks): 914 mg/kg/day | TD50 (rat, strain Fischer 344, males, inhaled, site: testis, lesion: interstitial-cell adenoma, dosed 26 weeks, study length 52 weeks): 316 mg/kg/day

CC(C)N=[N+]([O-])C(C)C
TD50 (rat, strain Sprague-Dawley, males, by gavage, site: liver, lesion: hepatocellular carcinoma, dosed 26 weeks, study length 77 weeks): 0.00736 mg/kg/day | TD50 (rat, strain Sprague-Dawley, males, by gavage, site: skin, lesion: keratoacanthoma, dosed 26 weeks, study length 77 weeks): 0.00268 mg/kg/day

C[N+](C)(C)CCCl
TD50 (mouse, strain B6AKF1, females, oral dosing, site: any site (literature study), lesion: several types, types named in the paper, dosed 76 weeks, study length 76 weeks): 33.5 mg/kg/day | TD50 (mouse, strain B6AKF1, males, oral dosing, site: any site (literature study), lesion: several types, types named in the paper, dosed 76 weeks, study length 76 weeks): 21.3 mg/kg/day | TD50 (mouse, strain B6AKF1, males, oral dosing, site: liver, lesion: hepatoma, dosed 76 weeks, study length 76 weeks): 11.4 mg/kg/day | carcinogen call (mouse, strain B6C3F1, females, in feed, site: any site (literature study), lesion: several types, types named in the paper, dosed 102 weeks, study length 102 weeks): negative (inactive) | TD50 (mouse, strain B6C3F1, females, oral dosing, site: any site (literature study), lesion: several types, types named in the paper, dosed 76 weeks, study length 76 weeks): 57.4 mg/kg/day | TD50 (mouse, strain B6C3F1, males, in feed, site: any site (literature study), lesion: several types, types named in the paper, dosed 102 weeks, study length 102 weeks): 3240 mg/kg/day (inactive) | TD50 (mouse, strain B6C3F1, males, in feed, site: liver, lesion: hepatocellular adenoma + hepatocellular carcinoma + neoplastic nodule, dosed 102 weeks, study length 102 weeks): 599 mg/kg/day | TD50 (mouse, strain B6C3F1, males, oral dosing, site: any site (literature study), lesion: several types, types named in the paper, dosed 76 weeks, study length 76 weeks): 5.19 mg/kg/day | TD50 (mouse, strain B6C3F1, males, oral dosing, site: liver, lesion: hepatoma, dosed 76 weeks, study length 76 weeks): 9.38 mg/kg/day | carcinogen call (rat, strain Fischer 344, females, in feed, site: any site (literature study), lesion: several types, types named in the paper, dosed 108 weeks, study length 108 weeks): negative (inactive) | TD50 (rat, strain Fischer 344, females, in feed, site: liver, lesion: hepatocellular adenoma + hepatocellular carcinoma + neoplastic nodule, dosed 108 weeks, study length 108 weeks): 8090 mg/kg/day | TD50 (rat, strain Fischer 344, males, in feed, site: any site (literature study), lesion: several types, types named in the paper, dosed 108 weeks, study length 108 weeks): 3360 mg/kg/day | TD50 (rat, strain Fischer 344, males, in feed, site: pancreatic islets, lesion: islet-cell adenoma, dosed 108 weeks, study length 108 weeks): 458 mg/kg/day (inactive)

— PubChem BioAssay AID1745844 (Carcinogenic Potency Database (CPDB), 2022)
